Experimental data published in patent US11266711B2, “Oxytocin compositions and methods of use” (Elgan Pharma Ltd, priority 2018, dated 2022).
Structures can show the parent of a compound that is named as a salt. Numbered stars: 1 amine (or outer) side, 2 acyl side, 3 side chain; on linkers, the order of the positions; unused ones are H or OH. Bridge positions count the residues as written; N and C are the ends. Peptide text beside a SMILES is read from it. X1 = O=C(CCC[*:2])[*:1]

Legend:
[1] = cited from earlier work
[2] = biological target: T1, oxytocin receptor (Homo sapiens, UniProt P30559); settings: cited from earlier work
[3] = biological target: T1, oxytocin receptor; settings: cited from earlier work; remark: listed apart in the source
[4] = tested on: infants of mothers who took the drug during the first 42 days of pregnancy; settings: mothers took the drug during the first 42 days of pregnancy; other drugs 4.6 per 100, no drugs 2.6 per 100; cited from earlier work
[5] = tested on: adolescent rats chronically exposed to morphine prenatally; test: Automated Three-Chamber Test, adolescent rats exposed to morphine prenatally (Example 9); format: in vivo; settings: first 10 postnatal days, tested postnatal days 31-35
Excerpt: (§1) Briefly, the Three-Chamber Test assesses cognition in the form of social novelty and social memory; Social novelty occurs in three sessions within a three-chambered box with openings between the chambers. After habituation to the empty box, the test animal encounters a novel conspecific under one pencil cup and an empty pencil cup. The test animal then encounters the familiar conspecific and a second novel conspecific under the previously empty pencil cup; Animals that show intact social novelty behavior will show a preference to investigate the novel conspecific; Twenty-four hours later, social memory is tested by placing the test animal back in to the chamber with the two familiar conspecifics; Animals with intact social memory will spend an equal amount of time investigating the two familiar conspecifics. Duration of time spent investigating conspecifics is measured automatically using a SmartCage™.

[6] = tested on: rat pups chronically exposed to morphine prenatally; test: Naloxone-induced withdrawal in rat pups exposed to morphine prenatally (Example 1); format: in vivo, Sprague-Dawley rats
[7] = tested on: adolescent rats chronically exposed to diazepam prenatally; test: Automated Three-Chamber Test, adolescent rats exposed to diazepam prenatally (Example 13); format: in vivo; settings: first 10 postnatal days, tested postnatal days 31-35
Excerpt: as §1

[8] = tested on: adolescent rats chronically exposed to fluoxetine prenatally; test: Light/Dark Box, adolescent rats exposed to fluoxetine prenatally (Example 5); format: in vivo; settings: 2 mg/kg s.c. daily, first 10 postnatal days; tested postnatal days 31-35; vs saline (data not shown)
[9] = tested on: rat pups chronically exposed to diazepam prenatally; settings: 2 mg/kg s.c. daily, first 10 postnatal days
[10] = tested on: rat pups chronically exposed to diazepam prenatally; test: Survival and body weight, three oxytocin doses, rat pups exposed to diazepam prenatally (Example 10); settings: first 10 postnatal days
[11] = tested on: adolescent rats chronically exposed to morphine prenatally; test: Passive Avoidance Test, adolescent rats exposed to morphine prenatally (Example 8); format: in vivo; settings: 2 mg/kg s.c. daily, first 10 postnatal days; tested postnatal days 31-35; vs saline (FIG. 8b)
[12] = tested on: healthy rats; test: Survival and body weight during development in healthy rats (Example 14); format: in vivo, Sprague-Dawley rats; settings: 0.3, 1 or 2 mg/kg daily, first 10 postnatal days; drug naive pups
[13] = tested on: rat pups chronically exposed to diazepam prenatally; test: Locomotor activity during withdrawal, rats exposed to diazepam prenatally (Example 11)
Description: Briefly, locomotor activity is measured by placing an animal in to a small standardized test chamber for a five-minute period. Distance travelled, and time spent active is measured automatically using a SmartCage™.

[14] = tested on: adolescent rats chronically exposed to fluoxetine prenatally; test: Locomotor activity, adolescent rats exposed to fluoxetine prenatally (Example 5); format: in vivo; settings: 2 mg/kg s.c. daily, first 10 postnatal days; tested postnatal days 31-35; vs saline (data not shown)
[15] = tested on: adolescent rats chronically exposed to morphine prenatally; test: Light-Dark Box, adolescent rats exposed to morphine prenatally (Example 8); format: in vivo; settings: 0.3 mg/kg s.c. daily, first 10 postnatal days; tested postnatal days 31-35; vs saline (FIG. 8a)
[16] = tested on: rat pups chronically exposed to morphine prenatally; format: in vivo, Sprague-Dawley rats; settings: all three doses (0.3, 1, 2 mg/kg) s.c. daily, first 10 postnatal days; vs saline (FIG. 6a)
[17] = tested on: rat pups chronically exposed to morphine prenatally; format: in vivo, Sprague-Dawley rats; settings: 2 mg/kg s.c. daily, first 10 postnatal days; survival measured for 15 days; vs saline (FIG. 2a)
[18] = tested on: rat pups chronically exposed to morphine prenatally; test: Locomotor activity during withdrawal, rats exposed to morphine prenatally (Example 7); format: in vivo
[19] = tested on: adolescent rats chronically exposed to fluoxetine prenatally; test: Passive Avoidance Test, adolescent rats exposed to fluoxetine prenatally (Example 5); format: in vivo; settings: 2 mg/kg s.c. daily, first 10 postnatal days; tested postnatal days 31-35; vs saline (FIG. 5)
[20] = tested on: adolescent rats chronically exposed to diazepam prenatally; test: Light-Dark Box, adolescent rats exposed to diazepam prenatally (Example 12); settings: 1 mg/kg and 2 mg/kg s.c., first 10 postnatal days; tested postnatal days 31-35; vs saline (FIG. 12a)
[21] = tested on: adolescent rats chronically exposed to diazepam prenatally; test: Passive Avoidance Test, adolescent rats exposed to diazepam prenatally (Example 12); settings: all doses (0.3, 1, 2 mg/kg) s.c., first 10 postnatal days; tested postnatal days 31-35; vs saline (FIG. 12b)
Excerpt: Briefly, in the Passive Avoidance Test an animal learns to avoid an unpleasant stimulus by inhibiting locomotion and exploration; On the training day, rats are placed in a brightly lit compartment of a test chamber; The animal quickly moves in to an adjacent dark compartment of the test chamber and receives an unavoidable mild foot shock; Twenty-four hours later during the test phase, the animals are again placed in to the light compartment and the latency to re-enter the dark compartment is measured. Latency to enter a compartment is automatically measured using a SmartCage™.

[22] = tested on: rat pups chronically exposed to fluoxetine prenatally; test: Survival and body weight, rat pups exposed to fluoxetine prenatally (Example 4); format: in vivo, Sprague-Dawley rats; settings: 2 mg/kg s.c. daily
[23] = 1 or 2 mg/kg s.c. daily, vs saline (FIG. 7a)

T1 sequence (P30559 whole entry, species assumed): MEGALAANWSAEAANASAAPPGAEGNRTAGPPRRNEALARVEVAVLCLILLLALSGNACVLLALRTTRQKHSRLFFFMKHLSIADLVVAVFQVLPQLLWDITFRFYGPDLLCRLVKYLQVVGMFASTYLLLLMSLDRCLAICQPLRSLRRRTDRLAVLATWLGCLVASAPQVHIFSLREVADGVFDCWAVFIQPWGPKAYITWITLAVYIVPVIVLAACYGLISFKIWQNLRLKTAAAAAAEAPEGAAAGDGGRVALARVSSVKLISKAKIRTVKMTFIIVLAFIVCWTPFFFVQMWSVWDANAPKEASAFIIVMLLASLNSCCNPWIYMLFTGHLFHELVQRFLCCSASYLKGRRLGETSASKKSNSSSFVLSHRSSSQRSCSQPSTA

Compound: Cc1nnc2n1-c1ccc(Cl)cc1C(c1ccccc1)=NC2 [Alprazolam]
- half-life ([1]; in vivo): ten to 24

Compound: O=C1Nc2ccc(Cl)cc2C(c2ccccc2Cl)=NC1O (centres unmarked) [Lorazepam]
- half-life in adults ([1]; adults): about 12 hours

Compound: CC[C@H](C)[C@@H]1NC(=O)[C@H](Cc2ccc(OC)cc2)NC(=O)CCCSC[C@@H](C(=O)N2CCC[C@H]2C(=O)N[C@@H](CC(C)C)C(=O)NCC(N)=O)NC(=O)[C@H](CC(N)=O)NC(=O)[C@H](CCC(N)=O)NC1=O [carbetocin, 1-Butanoic acid-2-(O-methyl-L-tyrosine)-1-carbaoxytocin] (Y(Me)IQNCPLG-NH2; linker N-5 via X1)
- affinity of the oxytocin receptor, compared with oxytocin [2]: equal affinity
- biological effect relative to endogenous or exogenous oxytocin [3]: ~50%

Compound: CNC1=Nc2ccc(Cl)cc2C(c2ccccc2)=[N+]([O-])C1 [chlordiazepoxide, Chlordiazepoxide hydrochloride]
- severe congenital anomalies among infants [4]: 11.4 per 100

Compound: CC[C@H](C)[C@@H]1NC(=O)[C@H](Cc2ccc(O)cc2)NC(=O)[C@@H](N)CSSC[C@@H](C(=O)N2CCC[C@H]2C(=O)N[C@@H](CC(C)C)C(=O)NCC(N)=O)NC(=O)[C@H](CC(N)=O)NC(=O)[C@H](CCC(N)=O)NC1=O [oxytocin]
- social memory function (time investigating a familiar conspecific) ([5]; 2 mg/kg s.c. daily, vs saline (FIG. 9b)): statistical trend towards improved social memory function
- social novelty behavior (time investigating a novel conspecific) ([5]; all doses (0.3, 1, 2 mg/kg) s.c. daily, vs saline (FIG. 9a)): trend towards increased social novelty behavior
- locomotor activity ([6]; single dose 2 mg/kg s.c. after naloxone, postnatal day one, up to 30 minutes post-naloxone, vs saline (FIG. 1a)): clear statistically significant reduction
- scores of rolling behavior ([6]; single dose 2 mg/kg s.c., up to 45 minutes, vs saline (FIG. 1b)): numerical reduction
- scores of curling behavior ([6]; single dose 2 mg/kg s.c., up to 45 minutes, vs saline (FIG. 1c)): numerical reduction
- percentage survival rates at postnatal day 10 ([6]; single dose 2 mg/kg s.c., vs saline (FIG. 1d)): improved percentage survival rates
- social memory function (time investigating a familiar conspecific) ([7]; 2 mg/kg s.c. daily, vs saline (FIG. 13b)): statistical trend toward improved social memory function
- social novelty behavior (time investigating a novel animal) ([7]; 1 and 2 mg/kg s.c. daily, vs saline (FIG. 13a)): clear statistically significant increase
- anxiety-like behavior [8]: No meaningful differences
- percentage survival rates ([9]; survival measured for 15 days, vs saline (FIG. 3a)): clear statistically significant improvement
- body weight, various time points of the dosing period ([9]; vs saline (FIG. 3b)): clear statistically significant increase
- body weight at postnatal day 31 ([9]; vs saline (FIG. 3c)): clear statistically significant decrease
- percentage survival rates for the first 30 postnatal days ([10]; 2 mg/kg s.c. daily, vs saline (FIG. 10a)): clear statistically significant improvement
- body weight throughout the first 30 postnatal days ([10]; all three doses (0.3, 1, 2 mg/kg) s.c. daily, vs saline (FIG. 10b)): clear statistically significant decrease
- learning and memory function (latency to enter chamber paired with foot shock) [11]: numerical improvement
- survival for the first 30 postnatal days [12]: survived for the first 30 postnatal days
- locomotor activity on postnatal day 6 ([13]; 0.3 mg/kg and 2 mg/kg s.c. daily, vs saline (FIG. 11a)): clear statistically significant decrease
- locomotor activity on postnatal day 30 ([13]; 2 mg/kg s.c. daily, first 10 postnatal days, vs saline (FIG. 11b)): clear statistically significant decrease
- locomotor activity on postnatal day 9 ([13]; 2 mg/kg s.c. daily, vs saline (FIG. 11a)): clear statistically significant decrease
- locomotor activity on postnatal days 3 and 6 ([13]; all three doses (0.3, 1, 2 mg/kg) s.c. daily, vs saline): clear statistically significant decrease
- locomotor activity [14]: No meaningful differences
- anxiety-like behavior (time in the light chamber) [15]: clear statistically significant decrease
- percentage survival rates for the first 30 postnatal days [16]: clear statistically significant improvement
- percentage survival rates [17]: clear statistically significant improvement
- locomotor activity at postnatal day 30 ([18]; 0.3, 1 or 2 mg/kg s.c. daily, first 10 postnatal days, between treatment groups (FIG. 7b)): No meaningful differences
- locomotor activity on postnatal day 6 [18, 23]: clear statistically significant increase
- locomotor activity on postnatal days 3 or 9 [18, 23]: not on postnatal days 3 or 9
- learning and memory function (latency to enter chamber paired with foot shock) [19]: clear statistically significant improvement
- anxiety-like behavior (time in the light chamber) [20]: clear statistically significant reduction
- learning and memory function (latency to enter chamber paired with foot shock) [21]: clear statistically significant improvement
- percentage survival rates ([22]; first 10 postnatal days, survival measured for 15 days, vs saline (FIG. 4a)): statistical trend towards improvement
- body weight at postnatal day 36 ([22]; first 10 postnatal days, vs saline (FIG. 4c)): clear statistically significant reduction
- body weights during the first 10 postnatal days ([22]; vs saline (FIG. 4b)): comparable
